≈ marks a conversion by molar mass, not a printed value. Structures can show the parent of a compound that is named as a salt.

The text below walks through data of patent US11492331B2, “Redox substrates for leukocyte esterase” (THE BOARD OF REGENTS OF THE UNIVERSITY OF TEXAS SYSTEM, priority 2017, dated 2022).

The subject of data set [1] is leukocyte esterase (LE) of white blood cell (WBC) suspensions. Put plainly: Electrochemical LE assay (ICECEA) of human leukocyte suspensions. Conditions: for Average activity of single WBC: 100 μM substrate, pH 7.40 PBS, 0.40 V, from slopes of FIG. 3. The format is biochemical. The protocol: FIG. 3. Dependence of LE activity on the white blood cell (WBC) count in leukocyte suspensions determined by using ICECEA and compound: (a) I, (b) II, and (c) III. Assay solution, 100 μM substrate I, II, or III in a pH 7.40 PBS solution. Concentration of HQ calibration spikes, 0.54 μM. Dilution factor, 100×. Potential, 0.40 V.
Finally, the compounds I-III were tested in the development of electrochemical LE assay using the ICECEA. The assay was optimized with respect to the detection potential, sample dilution factor, and solution composition (pH, concentration). Such assay was used to determine the esterolytic activity of a series of human leukocyte suspensions. […] Accordingly, the average esterolytic activity of single WBC calculated using the slopes of plots in FIG. 3 was the highest when determined using a compound III (Table 2).
Preparation of Leukocyte Suspensions. The original suspension of leukocytes was diluted 10 times with a PBS solution that contained 10 vol. % DMSO and left for 30 min on a shaker table at 60 rpm to lyse the leukocytes chemically. Such a suspension preserved a constant esterolytic activity for at least 5 days when stored in a refrigerator at 4° C. It was used as a solution C (vide infra) for the ICECEA.

The test system of data set [2] is leukocyte esterase (LE). Put plainly: Kinetics of reaction with LE by ICECEA (Michaelis-Menten). The format is biochemical, human. Conditions: 6.0 nM LE; for Km / kcat: 1-40 μM compound, PBS pH 7.40, 21° C.; for kcat Km^−1: PBS pH 7.40, Table 2. On the procedure: FIG. 2. Michaelis-Menten plots for 6.0 nM LE and 1-40 μM compound: (a) I, (b) II, and (c) III, in PBS (pH 7.40). The solid lines represent the best fit to the experimental points based on the nonlinear regression.
The properties of compounds I-III as LE substrates were further investigated by determining their kinetics of reaction with LE (reaction 1). The initial rate of reaction 1 was measured by ICECEA at a constant LE concentration (cLE=6.0 nM; MW=29 kDa) and under the condition of cLE<<ccompound I-III(ccompound I-III=1-40 μM). The assays were conducted within a linear range of calibration plot for HQ at a GC electrode. One unit (U) of LE activity was defined as the amount of enzyme that catalyzed the hydrolysis of 1.0 μmole of a compound I-III per minute in a PBS solution at room temperature (21° C.). The LE activity (U L^−1) was calculated from the equation
[formula] where AS is an assay slope equal to the slope of rising I-t segment and CS is a calibration slope calculated from the I-t steps of ICECEA traces similar to those shown in FIG. 1. […] The analysis of such plots using the Michaelis-Menten kinetics yielded the Michaelis constants Km and turnover numbers kcat, which are shown in Table 1.

Data set [3] in a line: Solubility in water by UV-visible spectrophotometry. The format is physicochemical. The note with it: thermodynamic from solid, room temperature (21° C.), A270. The protocol:
Solubility. The solubility of compounds I-III was determined by UV-visible spectrophotometry. The compounds were dissolved in water at room temperature (21° C.) to make a series of solutions with increasing concentration. The solutions were stirred continuously and their spectra were recorded until steady-state equilibrium was reached. Below the solubility limit, the steady-state background-corrected absorbance of solution at 270 nm (A270) was directly proportional to the compound concentration as expected by the Beer-Lambert law. Above the solubility limit, the absorbance steadily levelled off. The low- and high-concentration regions of plots A270 vs. compound concentration were linearized and extrapolated to a crossing point, which was taken as the solubility of compound.

In data set [4] the test system is leukocyte esterase (LE). Put plainly: ICECEA test of recognition of compounds by LE as substrates (release of hydroquinone). The format is biochemical, human. The note with it: 60 μg mL^−1 compound, 86.7 μg L^−1 LE protein, pH 7.40 PBS, 0.40 V. On the procedure: FIGS. 1A-B. (A) ICECEA I-t trace recorded at 0.40 V in a stirred pH 7.40 assay solution containing a tested compound. Each current step is due to the addition of hydroquinone calibrating aliquot to a solution. […] Otherwise, this segment was flat. (B) ICECEA current-time (I-t) traces recorded at a GC electrode in a stirred assay solution of compound (a) I, (b) II, (c) III. Trace # is for a precursor 1 to compounds I-III (Scheme 2). Arrows indicate the addition of 50 μL aliquots of hydroquinone (HQ) and leukocyte esterase (LE) to generate 0.54 μM HQ and 86.7 μg L^−1 LE protein in a solution. Assay solution, pH 7.40 PBS solution containing 60 μg mL^−1 of compound I-III or precursor 1. Traces were overlaid and shortened to show only the linear portion of ascending I-t segments. Potential, 0.40 V.
The initial electrochemical tests were performed to assess a degree of the recognition of compounds I-III by LE as its substrates. […]
The ICECEA was conducted by using phosphate buffer saline (PBS) solutions (pH 7.40, 154 mM NaCl) that contained either a tested compound, HQ, or LE. The current flowing through the GC electrode was measured while spiking 5.00 mL of a stirred assay solution of tested compound with triplicate aliquots of HQ solution and an aliquot of LE solution (FIG. 1). […]

For the compound `C[C@H](NS(=O)(=O)c1cccnc1)C(=O)Oc1ccc(OC(=O)[C@H](C)NS(=O)(=O)c2cccnc2)cc1` [Compound I, 4-(((pyridin-3-ylsulfonyl)-L-alanyl)oxy)phenyl (pyridin-3-ylsulfonyl)-L-alaninate], the “Average activity of single WBC” value in data set [1] is 0.8 nU. Also, in the data set with leukocyte esterase (LE) [2], the Km turned out to be 12 µM, the turnover number (kcat) came out at 3.2 s⁻¹ and the “kcat Km^−1” value came out at 270000 M⁻¹ s⁻¹. In data set [3], this compound yielded a solubility of 50 µg/mL (≈ 93.5 µM).

For the compound `COc1ccc(S(=O)(=O)N[C@@H](C)C(=O)Oc2ccc(OC(=O)[C@H](C)NS(=O)(=O)c3ccc(OC)nc3)cc2)cn1` [Compound II, 4-((((6-methoxypyridin-3-yl)sulfonyl)-L-alanyl)oxy)phenyl ((6-methoxypyridin-3-yl)sulfonyl)-L-alaninate], the “Average activity of single WBC” value in data set [1] is reported as 1.5 nU. Further, in the data set with leukocyte esterase (LE) [2], the Km was 14 µM, the kcat is 5.3 s⁻¹ and the “kcat Km^−1” value worked out at 380000 M⁻¹ s⁻¹. Also, the concentration in solution in data set [3] (solubility) was 500 µg/mL (≈ 841 µM).

With `COC(=O)c1cncc(S(=O)(=O)N[C@@H](C)C(=O)Oc2ccc(OC(=O)[C@H](C)NS(=O)(=O)c3cncc(C(=O)OC)c3)cc2)c1` [Compound III, methyl 5-{[(2S)-1-(4-{[(2S)-2-[5-(methoxycarbonyl)pyridine-3-sulfonamido]propanoyl]oxy}phenoxy)-1-oxopropan-2-yl]sulfamoyl}pyridine-3-carboxylate], the “Average activity of single WBC” value in data set [1] stood at 4.5 nU. In data set [1] (human leukocyte suspensions, ICECEA), the “detection limit of LE assay” value was 20 WBC μL^−1. In the data set with leukocyte esterase (LE) [2], the Km was found to be 11 µM, the kcat was 6.4 s⁻¹ and the “kcat Km^−1” value was found to be 580000 M⁻¹ s⁻¹. In addition, the solubility in data set [3] came to 4000 µg/mL (≈ 6150 µM).

As for `C[C@H](N)C(=O)Oc1ccc(OC(=O)[C@H](C)N)cc1` [precursor 1, 1,4-phenylene (2S,2′S)-bis(2-aminopropanoate)-bis hydrochloride], the “recognition by LE as substrate (rising I-t segment after LE addition)” value in the data set with leukocyte esterase (LE) [4] is “no rising I-t segment”.

One may read the Km as the substrate concentration at which the rate is half of its maximum. Usually kcat stands for the number of substrate molecules converted per active site and unit of time at saturation. What is called solubility is the concentration that dissolves in the medium under given conditions.
